# Assay results reported in the NIST ThermoML archive (doi:10.1016/j.jct.2012.06.033).
# Numbers after ± are expanded uncertainties.
# Assays:
# [1] = Liquid, Ebulliometric method (Recirculating still)
# [2] = refractive index (Na D-line) (dimensionless); conditions: 298.15 K; 101.33 kPa; Liquid; Standard Abbe refractometry
smiles,measurement,setting,value
CC[N+](=O)[O-] [nitroethane],vapor or sublimation pressure,[1]; 343.15 K,22.46 ± 0.13 kPa
same,vapor or sublimation pressure,[1]; 353.15 K,32.84 ± 0.17 kPa
same,vapor or sublimation pressure,[1]; 363.15 K,47.13 ± 0.22 kPa
same,refractive index,[2],1.3895 ± 0.0007
"ClCCCCCl [1,4-dichlorobutane]",vapor or sublimation pressure,[1]; 343.15 K,5.25 ± 0.03 kPa
same,vapor or sublimation pressure,[1]; 353.15 K,8.2 ± 0.04 kPa
same,vapor or sublimation pressure,[1]; 363.15 K,12.52 ± 0.05 kPa
same,refractive index,[2],1.4522 ± 0.0004
C[N+](=O)[O-] [nitromethane],vapor or sublimation pressure,[1]; 343.15 K,34.93 ± 0.2 kPa
same,vapor or sublimation pressure,[1]; 353.15 K,50.14 ± 0.25 kPa
same,vapor or sublimation pressure,[1]; 363.15 K,70.81 ± 0.33 kPa
same,refractive index,[2],1.3793 ± 0.0007
